molecular target: human cGAS (residues 161-522) (Homo sapiens (Human), UniProt Q8N884); test: Malachite Green assay to measure cGAS activity (coupled enzymatic assay, phosphate detection); format: biochemical; conditions: recombinant human cGAS (residues 161-522) 25 nM, 80 μM GTP, 100 nM ISD, 4 hour at RT, absorbance 620 nm
Protocol: Malachite Green Assay to Measure cGAS Activity Compounds were tested for cGAS inhibition in a coupled enzymatic assay based on Phosphate detection by Malachite Green. Final assay conditions were 20 mM TRIS pH 7.5 (Applichem), 5 mM MgCl2 (Sigma) and 0.01% BSA (Sigma) supplemented with […] (Sigma), 80 μM GTP (Sigma) and 100 nM Interferon Stimulating DNA (ISD) (Microsynth). Recombinantly expressed purified human cGAS (residues 161-522) was used at 25 nM. All compounds were prepared as 10 mM stock solutions in DMSO and a 16 pt dilution series in DMSO with a dilution factor of 2.5 was prepared. 1 μL of DMSO dilution series was transferred to 32.3 μL reaction buffer, mixed by pipetting up/down, spun for 1 minute at 3000 rpm and was visually inspected for precipitation. 5 μL of 3-fold enzyme stock solution were transferred to an empty 384-well Black/Clear Flat Bottom Polystyrene NBS (Corning) rows 3-24. Rows 1-2 were filled with assay buffer. Plates were spun 10 seconds at 1000 rpm (164×g). 5 μL of compound intermediate dilution was added and mixed by pipetting up/down to rows 3-24. Rows 1-2 were filled with 3.1% DMSO assay buffer. Plates were spun 10 seconds at 1000 rpm (164×g). 5 μL 3-fold Nucleotide/DNA mix was added to all wells to start the reaction. Plates were spun 10 seconds at 1000 rpm (164×g) and incubated for 4 hour at room temperature (RT) in the dark. 5 μL 4 U/mL PPase (Sigma) were added to all wells. Plates spun 10 seconds at 1000 rpm (164×g). 10 μL BioMol green Solution (Enzo Life Sciences) was added to all wells. Plates spun 10 seconds at 1000 rpm (164×g) and incubated 30 minutes at RT in the dark. Absorbance data was collected 620 nm on an EnVision Multilable Reader (Perkin Elmer) and the following measurement settings were used: excitation filter photometric was 620 nm; excitation from the top; measurement height was 1 mm; number of flashes was 30; number of flashes integrated was 1. All plates are checked for abnormalities and outliers in the Blank Control (no protein, row 1) and the Neutral Control (no compound, row 2) are excluded using the 3*SD rule. Data was normalized to 0 and 100% by Blank and Neutral Control and each curve was fitted and judged using the 4 parameter logistic equation to determine the IC50 for cGAS inhibition. Table 1 provides IC50 values (μM) for cGAS inhibition obtained for particular examples of the present invention as measured by the above-described assay.

Chain of human cGAS (residues 161-522) (Q8N884 161-522): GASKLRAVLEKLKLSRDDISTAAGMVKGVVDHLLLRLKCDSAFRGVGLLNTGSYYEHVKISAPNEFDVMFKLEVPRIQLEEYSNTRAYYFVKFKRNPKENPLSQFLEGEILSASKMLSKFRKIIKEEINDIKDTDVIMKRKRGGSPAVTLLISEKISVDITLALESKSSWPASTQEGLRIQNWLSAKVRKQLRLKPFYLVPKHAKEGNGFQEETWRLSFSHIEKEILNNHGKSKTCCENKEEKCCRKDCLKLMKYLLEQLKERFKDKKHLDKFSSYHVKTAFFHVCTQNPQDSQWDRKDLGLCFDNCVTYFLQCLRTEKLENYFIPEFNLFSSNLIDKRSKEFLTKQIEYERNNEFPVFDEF

Row | IC50 [nM] | Structure (SMILES)
1 | 4680 | O=C(O)c1cc(-c2ccc(C3CC3)cc2Cl)cc2[nH]cnc12 [Example 1, 6-(2-Chloro-4-cyclopropylphenyl)-1-benzimidazole-4-carboxylic acid]
2 | 540 | Cc1cc(Cl)c(-c2cc(C(=O)O)c3nc[nH]c3c2)cc1F [Example 2, 6-(2-Chloro-5-fluoro-4-methylphenyl)-1H-benzo[d]imidazole-4-carboxylic acid]
3 | 550 | Cc1ccc(-c2cc(C(=O)O)c3nc[nH]c3c2)c(Cl)c1 [Example 3, 6-(2-Chloro-4-methylphenyl)-1H-benzo[d]imidazole-4-carboxylic acid]
4 | 4370 | CCOc1ccc(-c2cc(C(=O)O)c3nc[nH]c3c2)c(Cl)c1 [Example 4, 6-(2-Chloro-4-ethoxyphenyl)-1H-benzo[d]imidazole-4-carboxylic acid]
5 | 3260 | O=C(O)c1cc(-c2ccc(C(F)(F)F)cc2Cl)cc2[nH]cnc12 [Example 5, 6-(2-Chloro-4-(trifluoromethyl)phenyl)-1H-benzo[d]imidazole-4-carboxylic acid]
6 | 2080 | Cc1cc(Cl)ccc1-c1cc(C(=O)O)c2nc[nH]c2c1 [Example 6, 6-(4-Chloro-2-methylphenyl)-1H-benzo[d]imidazole-4-carboxylic acid]
7 | 260 | Cc1ccc(-c2cc(C(=O)O)c3nc(CN4CCN5C(=O)CCC5C4)[nH]c3c2)c(Cl)c1 (centres unmarked) [Example 7, 6-(2-Chloro-4-methylphenyl)-2-[(6-oxo-1,3,4,7,8,8a-hexahydropyrrolo[1,2-a]pyrazin-2-yl)methyl]-1H-benzimidazole-4-carboxylic acid]
8 | 590 | Cc1ccc(-c2cc(C(=O)O)c3nc(CN4CCN(CC(F)(F)F)CC4)[nH]c3c2)c(Cl)c1 [Example 8, 6-(2-Chloro-4-methylphenyl)-2-((4-(2,2,2-trifluoroethyl)piperazin-1-yl)methyl)-1H-benzo[d]imidazole-4-carboxylic acid]
9 | 380 | Cc1ccc(-c2cc(C(=O)O)c3nc(CN4CCN(C5CC5)CC4)[nH]c3c2)c(Cl)c1 [Example 9, 6-(2-Chloro-4-methylphenyl)-2-[(4-cyclopropylpiperazin-1-yl)methyl]-1H-benzimidazole-4-carboxylic acid]
10 | 510 | Cc1ccc(-c2cc(C(=O)O)c3nc(CN4CCN(Cc5ccccc5)C(=O)C4)[nH]c3c2)c(Cl)c1 [Example 10, 2-[(4-Benzyl-3-oxopiperazin-1-yl)methyl]-6-(2-chloro-4-methylphenyl)-1H-benzimidazole-4-carboxylic acid]
11 | 600 | Cc1ccc(-c2cc(C(=O)O)c3nc(CN4CCNC(C(F)(F)F)C4)[nH]c3c2)c(Cl)c1 (centres unmarked) [Example 11, 6-(2-Chloro-4-methylphenyl)-2-[[3-(trifluoromethyl)piperazin-1-yl]methyl]-1H-benzimidazole-4-carboxylic acid]
12 | 1140 | Cc1ccc(-c2cc(C(=O)O)c3nc(CN4CCN(C)CC4=O)[nH]c3c2)c(Cl)c1 [Example 12, 6-(2-Chloro-4-methylphenyl)-2-[(4-methyl-2-oxopiperazin-1-yl)methyl]-1H-benzimidazole-4-carboxylic acid]
13 | 550 | Cc1ccc(-c2cc(C(=O)O)c3nc(CO)[nH]c3c2)c(Cl)c1 [Example 13, 6-(2-Chloro-4-methylphenyl)-2-(hydroxymethyl)-1H-benzimidazole-4-carboxylic acid]
14 | 1160 | Cc1ccc(-c2cc(C(=O)O)c3nc(Nc4ccccc4)[nH]c3c2)c(Cl)c1 [Example 14, 6-(2-Chloro-4-methylphenyl)-2-(phenylamino)-1H-benzo[d]imidazole-4-carboxylic acid]
15 | 260 | Cc1ccc(-c2cc(C(=O)O)c3nc(CN4CCC(F)(F)CC4)[nH]c3c2)c(Cl)c1 [Example 15, 6-(2-Chloro-4-methylphenyl)-2-[(4,4-difluoropiperidin-1-yl)methyl]-1H-benzimidazole-4-carboxylic acid]
16 | 1510 | CC(=O)N1CCN(Cc2nc3c(C(=O)O)cc(-c4ccc(C)cc4Cl)cc3[nH]2)CC1 [Example 16, 2-[(4-Acetylpiperazin-1-yl)methyl]-6-(2-chloro-4-methylphenyl)-1H-benzimidazole-4-carboxylic acid]

Row | IC50 [nM] | Structure (SMILES)
17 | 1230 | Cc1ccc(-c2cc(C(=O)O)c3nc(CN(C)c4ccccc4)[nH]c3c2)c(Cl)c1 [Example 17, 6-(2-Chloro-4-methylphenyl)-2-[(N-methylanilino)methyl]-1H-benzimidazole-4-carboxylic acid]
18 | 140 | Cc1ccc(-c2cc(C(=O)O)c3nc(CN4CCN(Cc5ccccc5)CC4)[nH]c3c2)c(Cl)c1 [Example 18, 2-[(4-Benzylpiperazin-1-yl)methyl]-6-(2-chloro-4-methylphenyl)-1H-benzimidazole-4-carboxylic acid]
19 | 1250 | Cc1ccc(-c2cc(C(=O)O)c3nc(CN4CCN(c5ccccc5)CC4)[nH]c3c2)c(Cl)c1 [Example 19, 6-(2-Chloro-4-methylphenyl)-2-[(4-phenylpiperazin-1-yl)methyl]-1H-benzimidazole-4-carboxylic acid]
20 | 590 | Cc1ccc(-c2cc(C(=O)O)c3nc(CN4CCNC(=O)C4)[nH]c3c2)c(Cl)c1 [Example 20, 6-(2-Chloro-4-methylphenyl)-2-[(3-oxopiperazin-1-yl)methyl]-1H-benzimidazole-4-carboxylic acid]
21 | 410 | Cc1ccc(-c2cc(C(=O)O)c3nc(CN4CCC(O)CC4)[nH]c3c2)c(Cl)c1 [Example 21, 6-(2-Chloro-4-methylphenyl)-2-[(4-hydroxypiperidin-1-yl)methyl]-1H-benzimidazole-4-carboxylic acid]
22 | 130 | Cc1ccc(-c2cc(C(=O)O)c3nc(CN4CCN(C)CC4)[nH]c3c2)c(Cl)c1 [Example 22, 6-(2-Chloro-4-methylphenyl)-2-[(4-methylpiperazin-1-yl)methyl]-1-benzimidazole-4-carboxylic acid]
23 | 480 | CCN(CC)Cc1nc2c(C(=O)O)cc(-c3ccc(C)cc3Cl)cc2[nH]1 [Example 23, 6-(2-Chloro-4-methylphenyl)-2-(diethylaminomethyl)-1-benzimidazole-4-carboxylic acid]
24 | 360 | Cc1ccc(-c2cc(C(=O)O)c3nc(CN4CCCCC4)[nH]c3c2)c(Cl)c1 [Example 24, 6-(2-Chloro-4-methylphenyl)-2-(piperidin-1-ylmethyl)-1H-benzimidazole-4-carboxylic acid]
25 | 690 | Cc1ccc(-c2cc(C(=O)O)c3nc(CNc4ccccc4)[nH]c3c2)c(Cl)c1 [Example 25, 2-(Anilinomethyl)-6-(2-chloro-4-methylphenyl)-1H-benzimidazole-4-carboxylic acid]
26 | 1020 | Cc1ccc(-c2cc(C(=O)O)c3nc(Cc4ccccc4)[nH]c3c2)c(Cl)c1 [Example 26, 2-Benzyl-6-(2-chloro-4-methylphenyl)-1H-benzo[d]imidazole-4-carboxylic acid]
27 | 1480 | Cc1ccc(-c2cc(C(=O)O)c3nc(Cc4ccc(Cl)cc4)[nH]c3c2)c(Cl)c1 [Example 27, 6-(2-Chloro-4-methylphenyl)-2-[(4-chlorophenyl)methyl]-1H-benzimidazole-4-carboxylic acid]
28 | 350 | Cc1ccc(-c2cc(C(=O)O)c3nc(CN4CCOCC4)[nH]c3c2)c(Cl)c1 [Example 28, 6-(2-Chloro-4-methylphenyl)-2-(morpholin-4-ylmethyl)-1H-benzimidazole-4-carboxylic acid]
29 | 590 | Cc1ccc(-c2cc(C(=O)O)c3nc(CN(C)C)[nH]c3c2)c(Cl)c1 [Example 29, 6-(2-Chloro-4-methylphenyl)-2-[(dimethylamino)methyl]-1H-benzimidazole-4-carboxylic acid]
30 | 3020 | Cc1ccc(-c2cc(C(=O)O)c3nc(C(F)(F)F)[nH]c3c2)c(Cl)c1 [Example 30, 6-(2-Chloro-4-methylphenyl)-2-(trifluoromethyl)-1H-benzimidazole-4-carboxylic acid]
31 | 840 | Cc1ccc(-c2cc(C(=O)O)c3nc(NCc4ccccc4)[nH]c3c2)c(Cl)c1 [Example 31, 2-(Benzylamino)-6-(2-chloro-4-methylphenyl)-1H-benzo[d]imidazole-4-carboxylic acid]
32 | 2410 | Cc1ccc(-c2cc(C(=O)O)c3nc(C)[nH]c3c2)c(Cl)c1 [Example 32]

— US20230348398A1 (Hoffmann-La Roche Inc., priority 2020, published 2023)
